Test results: US9101638B2, “Boronic acid derivatives and therapeutic uses thereof” (Rempex Pharmaceuticals, Inc., priority 2013, dated 2015)

How the values were obtained:
[1] = tested on: ec302 (TEM-10); experiment: Potentiation of tigemonam, strain ec302; type: cell-based; conditions: strain ec302 TEM-10, tigemonam alone
[2] = tested on: KP1009 (CTX-M-15); experiment: Potentiation of tigemonam, strain KP1009; conditions: strain KP1009 CTX-M-15, tigemonam alone
[3] = tested on: KP1010 (SHV-12); experiment: Potentiation of tigemonam, strain KP1010; conditions: strain KP1010 SHV-12, tigemonam alone
[4] = tested on: KP1005 (CTX-M-14)
[5] = tested on: ec308 (SHV-5); experiment: Potentiation of tigemonam, strain ec308; type: cell-based; conditions: strain ec308 SHV-5, tigemonam alone
[6] = tested on: EC1010 (CMY-6); type: cell-based; conditions: strain EC1010 CMY-6, tigemonam alone
[7] = tested on: KP1004 (KPC-2); experiment: Potentiation of biapenem, strain KP1004; type: cell-based; conditions: strain KP1004 KPC-2, biapenem alone
Experimental: (§1) Biapenem was present in the test medium at 1 μg/mL. […] Table 3 summarizes the BLI potency of biapenem potentiation (MPC@1) for two strains overexpressing class A (KPC) and class D (OXA-48) carbapenemases. Biapenem MIC for each strain is also shown.

[8] = tested on: KP1086 (OXA-48); experiment: Potentiation of biapenem, strain KP1086; type: cell-based; conditions: strain KP1086 OXA-48, biapenem alone
Experimental: as §1

[9] = tested on: PAM1154/KPC-2; experiment: Biapenem potentiation in PAM1154/KPC-2 (MexAB-OprM lacking); type: cell-based, Pseudomonas aeruginosa; conditions: Pseudomonas aeruginosa
Experimental: (§2) Efflux of BLIs from Pseudomonas aeruginosa by the MexAB-OprM efflux pump was also evaluated. […] Due to expression of KPC-2 both strains became resistant to biapenem. […] Potency of BLIs to potentiate biapenem in these strains was determined. […] The ratio of MPC64 values for each BLI in PAM1032/KPC-2 (efflux proficient) and PAM1154/KPC-2 (efflux deficient) was determined to generate the Efflux Index (EI).

[10] = tested on: PAM1032/KPC-2; experiment: Biapenem potentiation in PAM1032/KPC-2 (MexAB-OprM overexpressed); type: cell-based, Pseudomonas aeruginosa; conditions: Pseudomonas aeruginosa
Experimental: as §2

| Compound | Tigemonam MIC [1] | Tigemonam MIC [2] | Tigemonam MIC [3] | Tigemonam MIC [4] | Tigemonam MIC [5] | Tigemonam MIC [6] | MIC [7] | MIC [8] | MIC [9] | MIC [10] |
| --- | --- | --- | --- | --- | --- | --- | --- | --- | --- | --- |
| CC1(C)[C@H](NC(=O)/C(=N\OCC(=O)O)c2csc(N)n2)C(=O)N1OS(=O)(=O)O [Tigemonam, reference compound] | >64 µg/mL | >64 µg/mL | >64 µg/mL | >64 µg/mL | >64 µg/mL | 16 µg/mL | – | – | – | – |
| C[C@@H](O)[C@H]1C(=O)N2C(C(=O)[O-])=C(SC3Cn4cnc[n+]4C3)[C@H](C)[C@H]12 (stereo partly shown) [Biapenem, reference compound] | – | – | – | – | – | – | 32 µg/mL | 16 µg/mL | 32 µg/mL | 32 µg/mL |
